Laboratory results published in US20220251081A1, “HETEROBICYCLIC INHIBITORS OF MAT2A AND METHODS OF USE FOR TREATING CANCER” (priority 2019, published 2022).

Target: T1, MAT2A homodimer (Homo sapiens, UniProt P31153)
T1 construct: inferred from Ni sepharose purification and imidazole elution; made in house; host or cells: Sf9 insect cells, recombinant baculovirus (Bac to Bac, pFASTBAC1 vector)
Assay: Biochemical assay: inhibition of recombinant MAT2A homodimer (phosphate release, PiColorLock Gold)
Conditions: MAT2A IC50 score; read-out: Enzyme Inhibition
Experimental: Mat2A protein was expressed by recombinant baculovirus in SF9 infected cells using the Bac to Bac system cloned into the pFASTBAC1 vector (Invitrogen, Carlsbad, Calif.). Recombinant MAT2A was isolated from the cell lysate of 150 g of infected cells using HP Ni sepharose column chromatography. Recombinant MAT2A homodimer was eluted with 250 and 500 mM imidazole, and fractions containing MAT2A were identified by sodium dodecyl sulfate polyacrylamide gel electrophoresis and pooled.
For determination of the inhibitory potency of compounds against the MAT2A homodimer, protein was diluted to 4 μg/mL in assay buffer (50 mM Tris, pH 8.0, 50 mM KCl, 15 mM MgCl2, 0.3 mM EDTA, 0.005% [w/v] bovine serum albumin [BSA]). Test compound was prepared in 100% dimethyl sulfoxide (DMSO) at 50× the desired final concentration. A 1 μL volume of compound dilution was added to 40 μL of enzyme dilution and the mixture was allowed to equilibrate for 60 minutes at 25° C. The enzymatic assay was initiated by the addition of 10 μL of substrate mix (500 μM ATP, pH 7.0, 40 μM L-methionine in 1× assay buffer), and the mixture was incubated for a further 60 minutes at 25° C. The reaction was halted and the liberated phosphate released by the enzyme in stoichiometric amounts by the production of S-adenosyl methionine (SAM) was measured using the PiColorLock Gold kit (Innova Biosciences, UK). Absolute product amounts were determined by comparison to a standard curve of potassium phosphate buffer, pH 8.0.

T1 sequence (P31153 whole entry): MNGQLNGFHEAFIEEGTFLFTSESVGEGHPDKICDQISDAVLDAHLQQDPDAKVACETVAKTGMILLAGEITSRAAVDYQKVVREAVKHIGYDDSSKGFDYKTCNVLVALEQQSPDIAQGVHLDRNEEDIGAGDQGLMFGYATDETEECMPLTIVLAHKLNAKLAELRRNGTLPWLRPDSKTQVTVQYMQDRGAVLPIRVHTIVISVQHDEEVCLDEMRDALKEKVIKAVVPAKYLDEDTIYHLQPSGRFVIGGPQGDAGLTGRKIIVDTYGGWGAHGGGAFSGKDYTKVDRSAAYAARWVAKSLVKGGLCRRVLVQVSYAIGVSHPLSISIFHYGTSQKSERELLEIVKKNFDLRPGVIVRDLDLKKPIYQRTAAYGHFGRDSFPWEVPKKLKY

SMILES | IC50
COc1ccc(-c2cc3cnc(NCC4CC4)nc3n(-c3ccccc3)c2=O)cc1 [Example 102] | 0.1 to 1 µM
COc1ccc(-c2cc3cnc(NCC(F)(F)F)nc3n(-c3ccccc3)c2=O)cc1 [Example 103] | 0.1 to 1 µM
COc1ccc(-c2cc3cnc(S(C)(=O)=O)nc3n(-c3ccccc3)c2=O)cc1 [Example 104] | 1 to 10 µM
COc1ccc(-c2cc3cnc(S(C)(=O)=O)nc3n(-c3ccc(O)cc3)c2=O)cc1 [Example 105] | 1 to 10 µM
COc1ccc(-c2cc3cnc(NCC(F)(F)F)nc3n(-c3ccncc3)c2=O)cc1 [Example 107] | 0.1 to 1 µM
COc1ccc(-c2cc3cnc(SC)nc3n(-c3ccc(OC(F)(F)F)cc3)c2=O)cc1 [Example 108] | 1 to 10 µM
COc1ccc(-c2cc3cnc(NCC(F)(F)F)nc3n(-c3ccc(OC(F)(F)F)cc3)c2=O)cc1 [Example 109] | 0.1 to 1 µM
COc1ccc(-c2cc3cnc(SC)nc3n(-c3ccc(Cl)cc3)c2=O)cc1 [Example 110] | 0.1 to 1 µM
COc1ccc(-c2cc3cnc(SC)nc3n(-c3ccc(C(F)(F)F)cc3)c2=O)cc1 [Example 111] | 1 to 10 µM
COc1ccc(-c2cc3cnc(NCC(F)(F)F)nc3n(-c3ccc(C(F)(F)F)cc3)c2=O)cc1 [Example 112] | < 0.1 µM
COc1ccc(-c2cc3cnc(SC)nc3n(-c3ccc(OC)cc3)c2=O)cc1 [Example 113] | 0.1 to 1 µM
COc1ccc(-n2c(=O)c(-c3ccc4ncccc4c3)cc3cnc(SC)nc32)cc1 [Example 114] | 0.1 to 1 µM
COc1ccc(-c2cc3cnc(NCC(F)(F)F)nc3n(-c3ccc(C#N)cc3)c2=O)cc1 [Example 117] | 0.1 to 1 µM
COc1ccc(-c2cc3cnc(NCC(F)(F)F)nc3n(-c3ccc4sccc4c3)c2=O)cc1 [Example 125, 8-(benzo[b]thiophen-5-yl)-6-(4-methoxyphenyl)-2-(2,2,2-trifluoroethylamino)pyrido[2,3-d]pyrimidin-7(8H)-one] | < 0.1 µM
COc1ccc(-c2cc3cnc(NCC(F)(F)F)nc3n(-c3ccc(Cl)cc3)c2=O)cc1 [Example 126] | < 0.1 µM
COc1ccc(-c2cc3cnc(NCC(F)(F)F)nc3n(-c3ccc4[nH]ccc4c3)c2=O)cc1 [Example 128] | 0.1 to 1 µM

SMILES | IC50
COc1ccc(-c2cc3ccc(NCC(F)(F)F)nc3n(-c3ccc(C4CC4)cc3)c2=O)cc1 [Example 132] | < 0.1 µM
COc1ccc(-c2cc3ccc(NCC(F)(F)F)nc3n(-c3ccc(Cl)cc3)c2=O)cc1 [Example 133] | < 0.1 µM
COc1ccc(-c2cc3ccc(NCC(F)(F)F)nc3n(-c3ccc(C4CC4)nc3)c2=O)cc1 [Example 134] | < 0.1 µM
CCOc1ccc2cc(-c3ccc(OC)cc3)c(=O)n(-c3ccc(C)nc3)c2n1 [Example 136, 7-ethoxy-3-(4-methoxyphenyl)-1-(6-methylpyridin-3-yl)-1,8-naphthyridin-2(1H)-one] | < 0.1 µM
CCOc1ccc2cc(-c3ccc4nn(C)cc4c3)c(=O)n(-c3ccc(C)nc3)c2n1 [Example 137] | < 0.1 µM
CCOc1ccc2cc(-c3ccc(OC)cc3)c(=O)n(-c3ccc(C(F)(F)F)cc3)c2n1 [Example 141] | < 0.1 µM
CCOc1ccc2cc(-c3ccc(OC)cc3)c(=O)n(-c3cnc(NC)nc3)c2n1 [Example 143] | < 0.1 µM
[2H]C([2H])([2H])Nc1ccc(-n2c(=O)c(-c3ccc4nn(C)cc4c3)cc3ccc(OCC)nc32)cn1 [Example 146] | < 0.1 µM
CCOc1ccc2cc(-c3ccc(OC)cc3)c(=O)n(-c3ccc(Cl)cc3)c2n1 [Example 154] | < 0.1 µM
CCOc1ccc2cc(-c3ccc(OC)cc3)c(=O)n(-c3ccc(OC(F)(F)F)nc3)c2n1 [Example 156] | 0.1 to 1 µM
CNC(=O)c1ccc(-c2cc3cnc(NCC(F)(F)F)nc3n(-c3ccc(OC)cc3)c2=O)cc1 [Example 170, 4-(8-(4-methoxyphenyl)-7-oxo-2-(2,2,2-trifluoroethylamino)-7,8-dihydropyrido[2,3-d]pyrimidin-6-yl)-N-methylbenzamide] | 0.1 to 1 µM
COc1ccc(-n2c(=O)c(-c3ccc(OC)cn3)cc3cnc(NCC(F)(F)F)nc32)cc1 [Example 175] | 0.1 to 1 µM
COc1ccc(-n2c(=O)c(-c3ccc(OC)c(C)c3)cc3cnc(NCC(F)(F)F)nc32)cc1 [Example 178] | 0.1 to 1 µM
COc1ccc(-n2c(=O)c(-c3ccc(S(C)(=O)=O)cc3)cc3cnc(NCC(F)(F)F)nc32)cc1 [Example 179] | 0.1 to 1 µM
COc1ccc(-n2c(=O)c(-c3ccncc3)cc3cnc(NCC(F)(F)F)nc32)cc1 [Example 181] | 0.1 to 1 µM
COc1ccc(-n2c(=O)c(-c3ccc4nncn4c3)cc3cnc(NCC(F)(F)F)nc32)cc1 [Example 182] | 1 to 10 µM

More lines, now with the values ahead:

IC50 | SMILES
0.1 to 1 µM | COc1ccc(-n2c(=O)c(-c3ccc(OC)c(F)c3)cc3cnc(NCC(F)(F)F)nc32)cc1 [Example 184]
< 0.1 µM | COc1ccc(-n2c(=O)c(-c3ccc4c(c3)C(C)(C)CO4)cc3cnc(NCC(F)(F)F)nc32)cc1 [Example 190]
0.1 to 1 µM | COc1ccc(-n2c(=O)c(-c3ccc4c(c3)OC(C)(C)O4)cc3cnc(NCC(F)(F)F)nc32)cc1 [Example 191]
< 0.1 µM | O=c1c(-c2ccc3nccn3c2)cc2cnc(NCC(F)(F)F)nc2n1-c1ccc(C2CC2)cc1 [Example 192]
< 0.1 µM | Cn1cc(-c2cc3cnc(NCC(F)(F)F)nc3n(-c3ccc(C4CC4)cc3)c2=O)ccc1=O [Example 193]
< 0.1 µM | CCOc1ccc2cc(-c3ccc(OC(F)F)cc3)c(=O)n(-c3ccc(OC(F)F)cc3)c2n1 [Example 198]
< 0.1 µM | CCOc1ccc2cc(-c3ccc(OCCN(C)C)cc3)c(=O)n(-c3ccc(OC(F)F)cc3)c2n1 [Example 206]
< 0.1 µM | CCOc1ccc2cc(-c3ccc4nn(CC(C)(C)C)cc4c3)c(=O)n(-c3ccc(Cl)cc3)c2n1 [Example 211]
< 0.1 µM | CCOc1ccc2cc(-c3ccc4nn(CC(C)(C)O)cc4c3)c(=O)n(-c3ccc(OC(F)(F)F)nc3)c2n1 [Example 212]
< 0.1 µM | Cn1cc(-c2cc3cnc(NCC(F)(F)F)nc3n(-c3ccc(-c4cc[nH]n4)cc3)c2=O)ccc1=O [Example 234, 8-(4-(1H-pyrazol-5-yl)phenyl)-6-(1-methyl-6-oxo-1,6-dihydropyridin-3-yl)-2-(2,2,2-trifluoroethylamino)pyrido[2,3-d]pyrimidin-7(8H)-one]
< 0.1 µM | [2H]C([2H])([2H])Oc1ccc(-c2cc3ccc(NCC(F)(F)F)nc3n(-c3ccc(OC([2H])([2H])[2H])cc3)c2=O)cc1 [Example 306]
< 0.1 µM | Cn1cc2cc(-c3cc4ccc(NCC(F)(F)F)nc4n(-c4ccc(C5CC5)nc4)c3=O)ccc2n1 [Example 311]
< 0.1 µM | CCNc1ccc2cc(-c3ccc4nn(C)cc4c3)c(=O)n(-c3ccc(N)nc3)c2n1 [Example 312]
< 0.1 µM | CN(C)c1ccc(-n2c(=O)c(-c3ccc4nn(C)cc4c3)cc3ccc(OCC(F)(F)F)nc32)cn1 [Example 315]
< 0.1 µM | COc1ccc(-n2c(=O)c(-c3ccc4nn(CCO)cc4c3)cc3ccc(OCC(F)(F)F)nc32)cc1 [Example 323]
< 0.1 µM | CCNc1ccc2nc(-c3ccc4nn(C)cc4c3)c(=O)n(-c3ccc(C4CC4)nc3)c2n1 [Example 336]
< 0.1 µM | CCNc1ccc2nc(-c3ccc4nn(C)cc4c3)c(=O)n(-c3ccc(C)nc3)c2n1 [Example 337]
< 0.1 µM | Cn1cc2cc(-c3nc4ccc(OCC(F)(F)F)nc4n(-c4ccc(Cl)cc4)c3=O)ccc2n1 [Example 339]
< 0.1 µM | CN(C)c1ccc(-n2c(=O)c(-c3ccc4nn(C)cc4c3)nc3ccc(OCC(F)(F)F)nc32)cn1 [Example 349, 4-(6-(dimethylamino)pyridin-3-yl)-2-(2-methyl-2H-indazol-5-yl)-6-(2,2,2-trifluoroethoxy)pyrido[2,3-b]pyrazin-3(4H)-one]
0.1 to 1 µM | Cn1cc2cc(-c3nc4ccc(OCC(F)(F)F)nc4n(-c4ccc(N)nc4)c3=O)ccc2n1 [Example 350, 4-(6-aminopyridin-3-yl)-2-(2-methyl-2H-indazol-5-yl)-6-(2,2,2-trifluoroethoxy)pyrido[2,3-b]pyrazin-3(4H)-one]
